The experiment has as its system Plasmodium falciparum. Put plainly: GSK_TCMDC: Inhibition of Plasmodium falciparum 3D7 in whole erythrocytes, using parasite LDH activity as an index of growth. Type of experiment: functional, organism-based. As to conditions: Plasmodium falciparum, 3D7.
`CCN1CCC(N(CCCCCCCCc2ccc(C(F)(F)F)cc2)C(=O)Cn2c(CCc3cccc(F)c3F)cc(=O)c3ccccc32)CC1`: the XC50 stood at 1200 nM. As for `Cc1cc(CNCCCCCCCNCc2cccc([N+](=O)[O-])c2)ccc1O`, the XC50 came out at 637 nM. `O=C(NCCCCCN1CCC(c2ccc(O)cc2)CC1)c1ccc(-c2ccccc2)cc1` yielded an XC50 of 929 nM. `O=C(Nc1ccc(Cn2ncc(N3CCCNCC3)c(Cl)c2=O)cc1)Nc1cc(Cl)cc(Cl)c1` yielded an XC50 of 866 nM. Under `N#Cc1cccc(CN2CCCN(Cc3ccc(C(=O)Nc4ccc(Cl)cc4)cc3)CC2)c1` stands 882 nM. For `COc1ccc([N+](=O)[O-])cc1N(Cc1ccccc1-c1ccccc1)S(=O)(=O)c1ccc(C(F)(F)F)cc1`, the XC50 was found to be 784 nM. Under `Nc1nccc2ccc(-c3cccnc3)cc12` stands 419 nM; under `CC(=O)N(C)C1CCN(Cc2cccc(-c3ccc(-c4nc5cc(F)ccc5[nH]4)cc3)c2)C1` (stereo not given), 957 nM.

The molecule `O=[N+]([O-])c1ccc2nc(Nc3cccc(C(F)(F)F)c3)c(Nc3cccc(C(F)(F)F)c3)nc2c1` displayed an XC50 of 483 nM. `COc1cccc(-c2ccc3ccnc(N)c3c2)c1` showed an XC50 of 408 nM. For `CCCCC([C@@H](Cc1ccc2ccccc2c1)C(=O)N[C@H](C(=O)NC)C(C)(C)C)N(O)C=O` (stereo not given in full), the XC50 came out at 142 nM. Molecule `CC(C)(C)c1cc(C(=O)Nc2cccnc2)cc(C(=O)Nc2cccnc2)c1` came in with an XC50 of 761 nM. `COc1ccc2nccc(N3CCC(NCc4ccc5c(n4)NC(=O)CS5)CC3)c2n1`: the XC50 amounted to 860 nM. The figure for `CCOC(=O)C(NC(=O)c1ccc([N+](=O)[O-])o1)C(C)C` (stereo not given) is 1060 nM. Molecule `CCC(NC[C@@H](O)[C@H](Cc1ccccc1)NC(=O)c1cc(C2CCCC2)cc(N2CCCC2=O)c1)c1cccc(Cl)c1` (stereo not given in full) yielded an XC50 of 35.2 nM. The figure for `N#Cc1ccc(-c2cnc3ccc(NCc4ccc(S(N)(=O)=O)cc4)nn23)cc1` is 785 nM. For the molecule `Cn1c(N)c(C(=O)CSc2ncc(-c3ccc(F)cc3)n2Cc2ccccc2)c(=O)n(C)c1=O`, the XC50 was 569 nM. On to `COC(=O)c1c(NC(=O)c2cccc(C(F)(F)F)c2)sc2c1CCN(Cc1ccccc1)C2`, for which the XC50 came out at 1340 nM.

`CC(=O)Nc1nc(C(=O)Nc2cccc(-c3ccc(-c4nc5ccccc5[nH]4)cc3)c2)cs1` gave an XC50 of 421 nM. `Cc1ccc(/C=C/C(=O)NCCCCCN2CCCN(C(=O)Nc3ccc(Cl)c(Cl)c3)CC2)cc1` displayed an XC50 of 942 nM. Molecule `CN(C)c1cccc(NC(=O)NC2N=C(c3ccccc3)c3ccccc3N(CC(=O)N(C)c3ccccc3)C2=O)c1` (stereo not given) registered an XC50 of 947 nM.

Regarding `Cc1ccc(NC(=O)c2ccc3ncccc3c2)cc1OC1CCN(Cc2ccsc2)C1` (stereo not given), the XC50 came to 802 nM.

As to `COc1ccc(-c2ccc(NC(=O)c3cccc(Cl)c3)cc2)cc1CN1CCC(O)CC1`, the XC50 stood at 712 nM. Under `Cc1cc2[nH]c(-c3ccc(C(=O)NCCCN4CCN(c5cccc(Cl)c5)CC4)cc3)nc2cc1Cl` stands 769 nM.

For `Cc1cc(NC(=O)c2cccs2)ccc1OC1CCN(Cc2ccc(F)cc2)C1` (stereo not given), the XC50 is 669 nM. Under `Cc1cccc2nc(-c3ccc(-c4cccc(CNCCCN5CCCC5=O)c4)cc3)[nH]c12` stands 840 nM; under `CC1(C)NC(N)=NC(=N)N1OCc1ccc2ccccc2c1CON1C(=N)N=C(N)NC1(C)C`, 663 nM. `NC(=O)c1cccc(-n2ccc3cc(CNC4Cc5ccccc5C4)ccc32)c1` gave an XC50 of 1130 nM. Under `CN(C)C(CNC(=O)c1cc(-c2ccncc2)c(-c2ccc(NC(=O)Nc3cccc(F)c3)cc2)o1)c1ccccc1` (stereo not given) stands 772 nM. The molecule `COc1ccc(C2=CCN(c3ccc(Cl)c(Cl)c3)C2=O)cc1OCCN1CCCCC1` came in with an XC50 of 784 nM.

`CN1CCN(c2ccc(CNc3ccc4ncc(-c5ccc(OC(F)(F)F)cc5)n4n3)cc2)CC1` had an XC50 of 834 nM. For `CCS(=O)(=O)c1ccc(OC)c(Nc2nccc(-c3c(-c4cccc(NC(=O)c5c(F)cccc5F)c4)nn4ncccc34)n2)c1`, the XC50 is 1030 nM. On to `O=C(/C=C/c1ccc(-c2nc3ccc(Cl)cc3[nH]2)cc1)NC1CCN(Cc2ccccc2)CC1`, for which the XC50 turned out to be 610 nM. The molecule `O=C(Nc1cccc(-c2cc(-c3c(Cl)cccc3Cl)no2)c1)c1cnc2ccccc2c1` came in with an XC50 of 1100 nM. Take `COc1c(CNCCCCCCNCc2cc(Cl)c3ccccc3c2OC)cc(Cl)c2ccccc12`: the XC50 stood at 937 nM. `COc1cccc(CCNc2nc(NCc3ccccc3)c3cc(OC)c(OC)cc3n2)c1`: the XC50 was 321 nM. Under `CCCc1ccc2c(c1O)CCC(N(CCC)CCC)C2` (stereo not given) stands 886 nM; under `COc1ccc2nc(-c3cc(-c4ccc(NC(C)=O)cc4)cnc3N)[nH]c2c1`, 1240 nM.

`CCCCNC(=O)[C@@H](NC(=O)c1ccc(O)c(-c2ccc(Cl)c(Cl)c2)c1)C(C)C` yielded an XC50 of 230 nM. As to `Cc1cccc2nc(-c3cccc(-c4ccc(CNCCNC(=O)c5ccnn5C)cc4)c3)[nH]c12`, the XC50 was determined as 167 nM. Under `FC(F)(F)c1ccc2c(NCCNc3ccnc4cc(C(F)(F)F)ccc34)ccnc2c1` stands 32.7 nM. Under `Cc1cc(N[C@@H](CC(C)C)C(=O)NCc2cccc(F)c2)nc(Nc2ccccc2)n1` stands 1090 nM; under `Cc1ccc(CNc2ccc3ncc(-c4cccc(C(=O)NCCN(C)C)c4)n3n2)c(C)c1`, 588 nM. Molecule `COc1ccc(N2CCN(CCCCNC(=O)c3ccc(/C=C/c4ccc(Cl)c(Cl)c4)cc3)CC2)c(OC)c1` yielded an XC50 of 709 nM. For the molecule `CN1CCCN(Cc2cccc(-c3cccc(NS(=O)(=O)c4cccc5cccnc45)c3)c2)CC1`, the XC50 was found to be 764 nM.

In the case of `COc1cc2nc(C)nc(Nc3cccc(Br)c3)c2cc1OC`, the XC50 was determined as 356 nM. The molecule `Nc1nc(NCC2CCC(CNS(=O)(=O)c3cccc4ccccc34)CC2)nc2ccccc12` (stereo not given) showed an XC50 of 804 nM. The figure for `Cn1nc(-c2cccc(CN[C@@H]3CCc4ccc(O)cc43)c2)c2cnc(NCCCN3CCCC3)nc21` is 831 nM; for `O=S(=O)(Nc1cccc(CCN2CCCCC2CCN2CCCC2)c1)c1ccc2ccccc2c1` (stereo not given) it is 1070 nM.

In turn, `CC1(C)CN(CCC2CCC(NC(=O)/C=C/c3ccccc3F)CC2)Cc2ccc(C#N)cc21` (stereo not given) registered an XC50 of 1110 nM. Under `COc1cc(OC)c(NC(=O)COc2ccc(C)cc2)cc1Cl` stands 688 nM; under `CN(Cc1ccc(C#N)cc1)C1CCN(c2cc(NC(=O)c3cccc(F)c3)ccn2)CC1`, 1750 nM. As to `c1ccc2c(c1)cc(CNCCCN1CCN(CCCNCc3cc4ccccc4c4ccccc34)CC1)c1ccccc12`, the XC50 is 204 nM. As for `Cc1ccc(S(=O)(=O)N(C)c2ccccc2C(=O)Nc2ccccc2Oc2ccccc2)cc1`, the XC50 turned out to be 919 nM. The figure for `O=S(=O)(NC1CCCCN(Cc2ccccc2O)C1)c1ccc(C(F)(F)F)cc1` (stereo not given) is 1300 nM; for `O=C(NC1CCN(Cc2ccccc2)CC1)c1ccc(-c2nc3cc(F)c(F)cc3[nH]2)s1` it is 835 nM.

`CCOC(=O)CCCCOc1c(OC)cc(Cc2cnc(N)nc2N)cc1OC` came in with an XC50 of 29.9 nM.

Regarding `COc1cc2nc(NCCc3ccccc3)nc(NCc3cc(C)no3)c2cc1OC`, the XC50 amounted to 239 nM. With `COc1ccc(Nc2nccc(N3CCC(NC(=O)c4cccc(NC(C)=O)c4)C3)n2)cc1` (stereo not given), the XC50 was determined as 994 nM. `CCOc1cc(Cc2cnc(N)nc2N)ccc1OC`: the XC50 stood at 1250 nM. In turn, `O=c1cc(NCCCNCc2cccc(OC(F)(F)C(F)F)c2)[nH]c2ccccc12` had an XC50 of 1270 nM.

The molecule `Clc1ccc2c(NCc3ccc4c(c3)OCO4)ccnc2c1` registered an XC50 of 266 nM. The molecule `CCC(C)CN1C(=O)C(c2ccccc2)(c2ccccc2)N=C1N` (stereo not given) yielded an XC50 of 712 nM. In turn, `Cc1[nH]c(C)c(-c2ccc(OCc3ccc(OC(F)(F)F)cc3)nc2)c(=O)c1Cl` displayed an XC50 of 70.5 nM. For `CC(=O)Nc1ccc(S(=O)(=O)Nc2ccc(Nc3nc(C)cc(N4CCCCC4)n3)cc2)cc1`, the XC50 came out at 779 nM. On to `Fc1cc(Cl)ccc1Nc1ccnc2cc(-c3ccc(CNCCN4CCOCC4)o3)ccc12`, for which the XC50 was found to be 277 nM. Turning to `O=C(NC1CCN(Cc2ccccc2)CC1)c1cc(-c2cccnc2)nc2ccc(Cl)cc12`, the XC50 was found to be 759 nM.

`CC1(C)[C@H]2CC[C@@H](CNc3nc(NCCc4c[nH]cn4)nc(Nc4ccc(Oc5ccccc5)cc4)n3)[C@@H]1C2` gave an XC50 of 672 nM. On to `c1ccc(CCNc2ccnc(Nc3ccc4[nH]nnc4c3)n2)cc1`, for which the XC50 came out at 863 nM. The figure for `Cc1ccc(-c2nnc(Nc3ccc(C(=O)N4CCCCC4)cc3)c3ccccc23)cc1S(=O)(=O)NCC1CCCO1` (stereo not given) is 709 nM.

In turn, `CCN1CCN(Cc2ccc(-c3ccc(NS(=O)(=O)c4cccc5cccnc45)cc3)cc2)CC1` registered an XC50 of 922 nM.

For `COc1cccc(CN2CCC(C(=O)Nc3ccc(-c4nc5ccccc5[nH]4)cc3)CC2)c1`, the XC50 is 627 nM.

`COc1cccc(CNC(=O)[C@H]2CNCCN2C(=O)CCCc2ccccc2)c1` yielded an XC50 of 787 nM. With `COc1ccc2nccc([C@@H](O)CN3CCC(NCc4ccc5cccc(O)c5n4)CC3)c2c1`, the XC50 turned out to be 1130 nM.

The molecule `COc1ccc(-c2cc(C(=O)Nc3ccc4[nH]c(-c5ccccc5)nc4c3)[nH]n2)cc1` displayed an XC50 of 696 nM. `Cc1cccc2nc(-c3cccc(-c4cccc(C(=O)NCc5nccn5C)c4)c3)[nH]c12` had an XC50 of 528 nM. The figure for `CC(C)NCc1ccc(-c2cccc(NC(=O)c3ccc(C#N)cc3)c2)cc1` is 740 nM; for `O=C(Nc1cc(C(F)(F)F)cc(C(F)(F)F)c1)N1CCC(CCN2CCC(c3c[nH]c4ccccc34)CC2)CC1` it is 1260 nM. Take `CCCc1cc(N2CCC(c3ccccc3)(N3CCCCC3)CC2)nc(Nc2ccc(OC)cc2)n1`: the XC50 was 1090 nM. The figure for `FC(F)(F)c1ccc2[nH]c(-c3ccc(-c4cccc(CN5CCCCC5)c4)cc3)nc2c1` is 144 nM; for `O=C(Nc1ccc(Cl)cc1)Nc1ccc(-c2cccc(-c3nc4cc(F)ccc4[nH]3)c2)cc1` it is 292 nM. In turn, `Nc1ncc(-c2ccc3nccc(-c4ccncc4)c3c2)cc1S(=O)(=O)N1CCOCC1` yielded an XC50 of 872 nM.

`Cc1cc(Nc2ccc(Cl)cc2)n2nc(C(F)(F)F)nc2n1` returned an XC50 of 117 nM.

`COC(=O)c1ccc(CC(C)NCC(O)c2cccc3ccccc23)cc1` (stereo not given) gave an XC50 of 935 nM. Molecule `COc1cc(OCCCN(C)Cc2ccc(OC)c(OC)c2)ccc1NC(=O)c1cccc2c(O)c3cccc(F)c3nc12` had an XC50 of 891 nM.
